Measurements: ChEMBL document CHEMBL6074620, “Discovery of a triphenylamine-based ligand that targets mitochondrial DNA G-quadruplexes and activates the cGAS-STING immunomodulatory pathway” (Eur J Med Chem, 2024)
Active and inactive are the calls of the source. No cut-off for these calls is given here.

Legend:
Mus musculus = assay: Immunostimulatory activity in female BALB/c mouse implanted with mouse 4T1 cells assessed as increase in CD8+ T cells in spleen 2.5 mg/kg, iv by flow cytometry; assay type: functional, organism-based
Quadruplex DNA [1] = assay: Binding affinity to 3-terminal mt6363 DNA (unknown origin) assessed as dissociation constant by TAMRA-labeled G4 quenching assay; assay type: nucleic-acid assay
Quadruplex DNA [2] = assay: Binding affinity to 5-terminal mt6363 DNA (unknown origin) assessed as dissociation constant by TAMRA-labeled G4 quenching assay; assay type: nucleic-acid assay
MDA-MB-231 = assay: Cytotoxicity against human MDA-MB-231 cells assessed as reduction in cell viability incubated for 24 hrs by CCK-8 assay; assay type: functional, cell-based; conditions: MDA-MB-231, 24 h
4T1 = assay: Cytotoxicity against mouse 4T1 cells assessed as reduction in cell viability incubated for 24 hrs by CCK-8 assay; assay type: functional, cell-based; conditions: 4T1, 24 h
[3] = Cytotoxicity against human MCF-10A assessed as cell growth inhibition incubated for 24 hrs by CCK-8 assay; assay type: toxicity, cell-based; conditions: MCF-10A cells

SMILES	Activity (Mus musculus)	Kd (Quadruplex DNA [1]) [µM]	Kd (Quadruplex DNA [2]) [µM]	IC50 (MDA-MB-231) [µM]	IC50 (4T1) [µM]	IC50 at 24 h [3] [µM]
COc1cccc2c1C(=O)c1c(O)c3c(c(O)c1C2=O)C[C@@](O)(C(=O)CO)C[C@@H]3O[C@H]1C[C@H](N)[C@H](O)[C@H](C)O1	Active	–	–	–	–	–
COc1ccc(N(c2ccc(/C=C/c3ccc4ccccc4[n+]3C)cc2)c2ccc(OC)cc2)cc1	–	3.2	9	5.4	9.9	39.4
C[N+]1=C(/C=C/c2ccc(N(c3ccccc3)c3ccccc3)cc2)C(C)(C)c2c1ccc1ccccc21	–	1.1	1.4	2.8	4.3	7
COc1ccc(N(c2ccc(/C=C/C3=[N+](C)c4ccccc4C3(C)C)cc2)c2ccc(OC)cc2)cc1	–	2.1	4.3	4	3.5	8.5
C[N+]1=C(/C=C/c2ccc(N(c3ccccc3)c3ccccc3)cc2)C(C)(C)c2ccccc21	–	6.3	7.3	2.6	4.8	5
C[n+]1c(/C=C/c2ccc(N(c3ccccc3)c3ccccc3)cc2)ccc2ccccc21	–	5	5.5	3.4	9.6	38
